Measured values as given in patent US5468771A, “Cholesterol lowering compound” (Merck & Co., Inc., priority 1994, dated 1995).

Biological target: T1, squalene synthetase (Homo sapiens, UniProt P37268)
T1 construct: The HepG2 enzyme preparation was centrifuged at 34,000 rpm to separate the cytosol and microsomal enzymes; host or cells: HepG2 (human hepatoblastoma), resuspended 34,000 rpm pellet of sonicated cells
T1 sequence (P37268 1-417): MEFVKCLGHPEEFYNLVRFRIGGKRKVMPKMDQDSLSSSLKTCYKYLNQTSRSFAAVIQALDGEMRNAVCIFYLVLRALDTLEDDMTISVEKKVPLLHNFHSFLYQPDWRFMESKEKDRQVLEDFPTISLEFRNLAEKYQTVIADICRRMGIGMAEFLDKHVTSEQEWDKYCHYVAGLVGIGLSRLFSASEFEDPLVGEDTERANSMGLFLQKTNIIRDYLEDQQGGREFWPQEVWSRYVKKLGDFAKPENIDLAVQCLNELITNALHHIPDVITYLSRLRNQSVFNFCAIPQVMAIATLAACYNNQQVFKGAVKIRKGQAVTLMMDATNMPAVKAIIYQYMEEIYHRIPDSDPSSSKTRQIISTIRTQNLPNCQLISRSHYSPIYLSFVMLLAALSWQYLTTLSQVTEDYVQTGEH
Assay: Squalene synthetase assay (in vitro, human HepG2 cell enzyme, 3H-farnesyl pyrophosphate substrate)
Type: biochemical
Conditions: 30° C., 20 minutes
Experimental: The intrinsic squalene synthetase inhibitory activity of the compound of this invention was measured by the ill vitro protocol described below:
PREPARATION OF HUMAN HepG2 cell ENZYME
1. SOURCE: HEPG2 CELL LINE(Liver, hepatoblastoma, Human) ATCC No. HB 8065
2. CELL GROWTH AND MAINTENANCE
Culture Medium: Minimum essential medium (MEM) with non-essential amino acids, sodium pyruvate, and 10% fetal bovine serum. The medium was changed twice weekly. […] The growth medium is prepared as listed below. […]
Subculture Procedure: Remove medium, wash with PBS, add fresh trypsin (0.25%)-EDTA (0.02%) with Hank's Balanced Salt solution and let flask stand for a minute and remove the trypsin solution . Incubate flask at 37° C. until cells detached. Add fresh medium, disperse and dispense cells into new flasks. Subcultivation ratio: 1:6.
PREPARATION of Delipidated Serum: Fetal calf serum(100 ml) and CAB-O-Sil (2 grams) stir overnight at 4° C. and centrifuge at 16,000 rpm for 5 hrs. […]
For each reaction, 55 μl of buffer mixture was taken with 5 μl of an inhibitor solution in MeOH and 10 μl of diluted enzyme (1 to 1536 as described in the enzyme preparation, the final protein concentration of enzyme in the assay is 1.2 μg per ml.). […] 400 μl of heptane layer was then removed into a […] and mixed with 2.5 ml of scintillation fluid and the radioactivity was determined by liquid scintillation counting. […]

C=C(CC[C@]12O[C@H](C(=O)O)[C@@](O)(C(=O)O)[C@](C(=O)O)(O1)[C@H](OC(=O)/C=C/C(C)CC(C)C(C)O)[C@H]2O)[C@@H](OC(C)=O)C(C)Cc1ccccc1 (stereo partly drawn) [compound of this invention, (1S,3S,4S,5S,6R,7R)-1-[(4S)-acetoxy-3-methylene-5-methyl-6-phenyl]hexyl-4,6,7-trihydroxy-6-0-(4,6-dimethyl-7-hydroxy-2-octenoyl)-2,8-dioxabicyclo [3.2.1]octane-3,4,5-tricarboxylic acid] was tested. Which IC50 (3 μM 3H-farnesyl pyrophosphate, estimated, with a dose related inhibition, read-out: IC50 against squalene synthetase) did it give?
Its IC50 is ~0.091 nM.

And the inhibition at 0.0018 µM (tested at a concentration of 1.8 nM)?
The inhibition at 0.0018 µM was 99%.
